Data from PubChem BioAssay AID248 (DTP/NCI, 2004).
Values joined by “and” are separate entries in the source; they are usually repeats but may differ in a detail not shown here. Equal entries are not always repeated. Inconclusive results and toxic doses are left out.

System: L1210 leukemia ip in BDF1 mice, survival T/C
Test: NCI In Vivo Anticancer Drug Screen. Data for tumor model L1210 Leukemia (intraperitoneal) in B6D2F1 (BDF1) mice
Conditions: endpoint: mean survival time, higher = longer survival
Outline: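 Ratio derived from survival: compound-dosed mice over vehicle-dosed mice, all bearing a transplantable tumor.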

[1] = dose: 100.0 mg/kg/injection, schedule: Q04DX003 (ip), vehicle: Klucel (hydroxypropylcellulose) (HPC)
[2] = dose: 200.0 mg/kg/injection, schedule: Q04DX003 (ip), vehicle: Klucel (hydroxypropylcellulose) (HPC)
[3] = dose: 400.0 mg/kg/injection, schedule: Q04DX003 (ip), vehicle: Klucel (hydroxypropylcellulose) (HPC)

COC(C(=O)C(O)C(C)O)C1CC2C=C3C=C(OC4CC(OC5CC(O)C(OC)C(C)O5)C(OC(C)=O)C(C)O4)C(C)C(=O)C3=C(O)C2=C(O)C1OC1CC(OC2CC(OC3CC(C)(O)C(OC(=O)C(C)C)C(C)O3)C(O)C(C)O2)C(O)C(C)O1 (stereo not drawn)
T/C (dose: 0.25 mg/kg/injection, schedule: Q01DX001 (ip), vehicle: other): 121 % of control
T/C (dose: 0.5 mg/kg/injection, schedule: Q01DX001 (ip), vehicle: other): 113 % of control
T/C (dose: 1.0 micrograms/kg/injection, schedule: Q01DX009 (ip), vehicle: other): 111 % of control
T/C (dose: 1.0 micrograms/kg/injection, schedule: Q01DX009 (ip), vehicle: saline): 111 % of control
T/C (dose: 2.0 micrograms/kg/injection, schedule: Q01DX009 (ip), vehicle: other): 105 % of control
T/C (dose: 2.0 micrograms/kg/injection, schedule: Q01DX009 (ip), vehicle: saline): 117 % of control
T/C (dose: 4.0 micrograms/kg/injection, schedule: Q01DX009 (ip), vehicle: other): 109 % of control
T/C (dose: 4.0 micrograms/kg/injection, schedule: Q01DX009 (ip), vehicle: saline): 117 % of control
T/C (dose: 5.0 micrograms/kg/injection, schedule: Q01DX001 (ip), vehicle: saline): 114 % of control
T/C (dose: 8.0 micrograms/kg/injection, schedule: Q01DX009 (ip), vehicle: other): 121 % of control
T/C (dose: 10.0 micrograms/kg/injection, schedule: Q01DX001 (ip), vehicle: saline): 123 % of control
T/C (dose: 16.0 micrograms/kg/injection, schedule: Q01DX009 (ip), vehicle: other): 118 % of control
T/C (dose: 16.0 micrograms/kg/injection, schedule: Q01DX009 (ip), vehicle: saline): 117 % of control
T/C (dose: 20.0 micrograms/kg/injection, schedule: Q01DX001 (ip), vehicle: saline): 114 % of control
T/C (dose: 32.0 micrograms/kg/injection, schedule: Q01DX009 (ip), vehicle: saline): 112 % of control
T/C (dose: 37.0 micrograms/kg/injection, schedule: Q01DX009 (ip), vehicle: other): 110 % of control
T/C (dose: 40.0 micrograms/kg/injection, schedule: Q01DX001 (ip), vehicle: saline): 120 % of control
T/C (dose: 62.5 micrograms/kg/injection, schedule: Q04DX003 (ip), vehicle: saline): 107 % of control
T/C (dose: 80.0 micrograms/kg/injection, schedule: Q01DX001 (ip), vehicle: saline): 103 % of control
T/C (dose: 125.0 micrograms/kg/injection, schedule: Q01DX001 (ip), vehicle: saline): 151 % of control and 331 % of control
T/C (dose: 125.0 micrograms/kg/injection, schedule: Q04DX003 (ip), vehicle: saline): 104 % of control
T/C (dose: 125.0 micrograms/kg/injection, schedule: Q08DX002 (ip), vehicle: saline): 163 % of control
T/C (dose: 250.0 micrograms/kg/injection, schedule: Q01DX001 (ip), vehicle: saline): 116 % of control and 198 % of control and 283 % of control

CC1(C)CCOC(C2OCCC(C)(C)O2)O1 (stereo not drawn)
T/C (dose: 50.0 mg/kg/injection, schedule: Q01DX009 (ip), vehicle: acetone): 113 % of control
T/C (dose: 100.0 mg/kg/injection, schedule: Q01DX009 (ip), vehicle: acetone): 93 % of control
T/C (dose: 200.0 mg/kg/injection, schedule: Q01DX009 (ip), vehicle: acetone): 98 % of control

OC(/C=C/C(O)c1ccccc1)c1ccccc1 (stereo not drawn)
T/C (dose: 12.5 mg/kg/injection, schedule: Q01DX009 (ip), vehicle: Klucel (hydroxypropylcellulose) (HPC)): 97 % of control
T/C (dose: 12.5 mg/kg/injection, schedule: Q04DX003 (ip), vehicle: Klucel (hydroxypropylcellulose) (HPC)): 95 % of control
T/C (dose: 25.0 mg/kg/injection, schedule: Q01DX009 (ip), vehicle: Klucel (hydroxypropylcellulose) (HPC)): 98 % of control
T/C (dose: 25.0 mg/kg/injection, schedule: Q04DX003 (ip), vehicle: Klucel (hydroxypropylcellulose) (HPC)): 100 % of control
T/C (dose: 50.0 mg/kg/injection, schedule: Q01DX009 (ip), vehicle: Klucel (hydroxypropylcellulose) (HPC)): 98 % of control
T/C (dose: 50.0 mg/kg/injection, schedule: Q04DX003 (ip), vehicle: Klucel (hydroxypropylcellulose) (HPC)): 94 % of control

CCc1cc(CC)c(S(=O)(=O)O)c(CC)c1CC
T/C (dose: 100.0 mg/kg/injection, schedule: Q01DX009 (ip), vehicle: saline): 90 % of control

O=C1c2ccccc2-c2cc(Cl)c(Cl)cc21
T/C [1]: 96 % of control
T/C [2]: 103 % of control
T/C [3]: 105 % of control

COc1ccc2cc(C)ncc2c1
T/C (dose: 100.0 mg/kg/injection, schedule: Q01DX001 (ip), vehicle: saline): 96 % of control
T/C (dose: 200.0 mg/kg/injection, schedule: Q01DX001 (ip), vehicle: saline): 91 % of control
T/C (dose: 400.0 mg/kg/injection, schedule: Q01DX001 (ip), vehicle: saline): 91 % of control

O=C(O)C(CCCN1C(=O)c2ccccc2C1=O)N1C(=O)c2ccccc2C1=O (stereo not drawn)
T/C (dose: 100.0 mg/kg/injection, schedule: Q01DX009 (ip), vehicle: Klucel (hydroxypropylcellulose) (HPC)): 93 % of control
T/C (dose: 200.0 mg/kg/injection, schedule: Q01DX009 (ip), vehicle: Klucel (hydroxypropylcellulose) (HPC)): 94 % of control
T/C (dose: 400.0 mg/kg/injection, schedule: Q01DX009 (ip), vehicle: Klucel (hydroxypropylcellulose) (HPC)): 98 % of control

COc1ccc(NC(=O)Nc2ccccc2Cl)c(Cl)c1
T/C (dose: 100.0 mg/kg/injection, schedule: Q04DX002 (ip), vehicle: saline with Tween-80): 90 % of control
T/C (dose: 200.0 mg/kg/injection, schedule: Q04DX002 (ip), vehicle: saline with Tween-80): 87 % of control
T/C (dose: 400.0 mg/kg/injection, schedule: Q04DX002 (ip), vehicle: saline with Tween-80): 87 % of control

NC(=S)c1cn(C2OC(CO)C(O)C2O)c2ncnc(N)c12 (stereo not drawn)
T/C (dose: 0.5 mg/kg/injection, schedule: Q03HX016 (ip), vehicle: other): 118 % of control
T/C (dose: 0.5 mg/kg/injection, schedule: Q03HX024 (ip), vehicle: saline): 156 % of control
T/C (dose: 1.0 mg/kg/injection, schedule: Q03HX016 (ip), vehicle: other): 118 % of control
T/C (dose: 1.0 mg/kg/injection, schedule: Q03HX024 (ip), vehicle: saline): 172 % of control
T/C (dose: 2.0 mg/kg/injection, schedule: Q03HX016 (ip), vehicle: other): 176 % of control
T/C (dose: 2.0 mg/kg/injection, schedule: Q03HX024 (ip), vehicle: saline): 124 % of control
T/C (dose: 3.75 mg/kg/injection, schedule: Q01DX009 (ip), vehicle: carboxymethylcellulose (CMC)): 110 % of control
T/C (dose: 4.0 mg/kg/injection, schedule: Q08DX002 (ip), vehicle: other): 123 % of control
T/C (dose: 5.0 mg/kg/injection, schedule: Q01DX001 (ip), vehicle: saline): 112 % of control
T/C (dose: 7.5 mg/kg/injection, schedule: Q01DX001 (ip), vehicle: carboxymethylcellulose (CMC)): 117 % of control
T/C (dose: 8.0 mg/kg/injection, schedule: Q04DX003 (ip), vehicle: saline): 151 % of control
T/C (dose: 8.0 mg/kg/injection, schedule: Q08DX002 (ip), vehicle: other): 123 % of control
T/C (dose: 10.0 mg/kg/injection, schedule: Q01DX001 (ip), vehicle: saline): 118 % of control
T/C (dose: 15.0 mg/kg/injection, schedule: Q01DX001 (ip), vehicle: carboxymethylcellulose (CMC)): 122 % of control
T/C (dose: 16.0 mg/kg/injection, schedule: Q04DX003 (ip), vehicle: saline): 96 % of control

CCOC(=O)c1cnc(C)nc1Nc1ccccc1
T/C [1]: 97 % of control
T/C [2]: 103 % of control
T/C [3]: 108 % of control

O=[N+]([O-])c1ccc(N/N=C\c2ccc(OCCOCCCl)cc2)c([N+](=O)[O-])c1
T/C (dose: 25.0 mg/kg/injection, schedule: Q01DX001 (ip), vehicle: saline with Tween-80): 94 % of control
T/C (dose: 50.0 mg/kg/injection, schedule: Q01DX001 (ip), vehicle: saline with Tween-80): 86 % of control
T/C (dose: 100.0 mg/kg/injection, schedule: Q01DX001 (ip), vehicle: saline with Tween-80): 94 % of control and 92 % of control

CCSc1nc(N)nc2c1ncn2C
T/C (dose: 100.0 mg/kg/injection, schedule: Q01DX001 (ip), vehicle: acetone): 94 % of control
T/C (dose: 200.0 mg/kg/injection, schedule: Q01DX001 (ip), vehicle: acetone): 91 % of control
T/C (dose: 400.0 mg/kg/injection, schedule: Q01DX001 (ip), vehicle: acetone): 90 % of control

CC(O)C1CCCNC1 (stereo not drawn)
T/C (dose: 100.0 mg/kg/injection, schedule: Q04DX003 (ip), vehicle: saline): 108 % of control
T/C (dose: 200.0 mg/kg/injection, schedule: Q04DX003 (ip), vehicle: saline): 97 % of control

CN(C)CCCC1c2ccccc2Oc2ccc(C(F)(F)F)cc21 (stereo not drawn)
T/C (dose: 0.78 mg/kg/injection, schedule: Q04DX003 (ip), vehicle: saline): 103 % of control
T/C (dose: 1.56 mg/kg/injection, schedule: Q04DX003 (ip), vehicle: saline): 102 % of control
T/C (dose: 3.12 mg/kg/injection, schedule: Q04DX003 (ip), vehicle: saline): 105 % of control
T/C (dose: 6.25 mg/kg/injection, schedule: Q04DX003 (ip), vehicle: saline): 105 % of control
T/C (dose: 12.5 mg/kg/injection, schedule: Q04DX003 (ip), vehicle: saline): 102 % of control
T/C (dose: 25.0 mg/kg/injection, schedule: Q04DX003 (ip), vehicle: saline): 117 % of control
T/C (dose: 50.0 mg/kg/injection, schedule: Q01DX009 (ip), vehicle: saline): 100 % of control
